Residues, ends and D or L forms follow the SMILES beside them. *: point of attachment. Boc = CC(C)(C)OC(=O)*; Bn = c1ccc(C*)cc1
melting point | SMILES
174 to 176 °C | COc1cc(OC)c(/C=C/C(c2ccc(OC)c(NC(=N)N)c2)S(=O)(=O)C(/C=C/c2c(OC)cc(OC)cc2OC)c2ccc(OC)c(NC(=N)N)c2)c(OC)c1 (stereo not drawn)
193 to 194 °C | CN(C(=O)Cc1c(-c2ccccc2)c2ccccc2c(=O)n1C)c1cc(C(F)(F)F)cc(C(F)(F)F)c1
151 to 152 °C | CCCCCCCCCCCCS(=O)(=O)Nc1cc(C(=O)Nc2ccc(Cl)c(Cl)c2)ccc1OC
102 °C | CC(C)(O)C(=O)c1ccc(C(OC(=O)c2ccc(C(=O)OC(c3ccc(C(=O)C(C)(C)O)cc3)c3ccc(C(=O)C(C)(C)O)cc3)cc2)c2ccc(C(=O)C(C)(C)O)cc2)cc1
176 to 178 °C | CCc1nc(OC)c(NC(=O)N2CCN(c3cc(C)cc(C)c3)CC2)cc1C(=O)NC(C)C(=O)Nc1cc(CO)cc(Nc2c3ccccc3nc3c(C)c(C)ccc23)c1 (stereo not drawn)
71 to 73 °C | CCCCCCCCCCCCCCCCCCSCCOP(=O)(Cc1cc(C(C)(C)C)c(O)c(C)c1C)OCCSCCCCCCCCCCCCCCCCCC
120 °C | CCCCC1(CC)CS(=O)(=O)c2ccc(N(C)C)cc2C(c2cccc(NC(=O)COCCOCCOCC(=O)NCc3ccc(C4C(CCC(O)c5ccccc5)C(=O)N4c4ccc(F)cc4)cc3)c2)C1O (stereo not drawn)
155 to 165 °C | CCCCCCCCCCCCCC(=O)Nc1ccc(Cl)c(NC2=NN(c3c(Cl)cc(Cl)cc3Cl)C(=O)C2Sc2nnnn2-c2cccc(C(=O)O)c2)c1 (stereo not drawn)
220 to 223 °C | CCCC(=O)c1c[nH]c2ccc(COC(=O)c3ccccc3)cc2c1=O
171 to 173 °C | CCOC(=O)c1cc(NCc2c(C)cccc2CC)c2nc(C)n(C)c2c1
122 to 124 °C | CC(C)[C@H](NC(=O)N(C)Cc1csc(N)n1)C(=O)N[C@@H](Cc1ccccc1)[C@H](O)[C@@H](O)[C@H](Cc1ccccc1)NC(=O)[C@@H](NC(=O)N(C)Cc1csc(N)n1)C(C)C
180 to 185 °C | CC(NC(=O)C(Cc1ccc(OCc2ccccc2)cc1)NC(=O)C(COCc1ccccc1)NC(=O)C(Cc1c[nH]c2ccccc12)NC(=O)OC(C)(C)C)C(N)=O (stereo not drawn) (Boc-WS(Bn)Y(Bn)A-NH2; configuration not given here)
115 to 120 °C | CC(C)[C@H](NC(=O)N(C)Cc1csc(NC(=O)OC(C)(C)C)n1)C(=O)N[C@@H](Cc1ccccc1)C[C@H](O)[C@H](Cc1ccccc1)NC(=O)[C@@H](NC(=O)N(C)Cc1csc(NC(=O)OC(C)(C)C)n1)C(C)C
225 to 227 °C | CCCCN(Cc1c(C)cc(C(C)(C)C)c(O)c1C)S(=O)(=O)c1ccc(-c2ccc(S(=O)(=O)N(CCCC)Cc3c(C)cc(C(C)(C)C)c(O)c3C)cc2)cc1
140 °C | CCCc1[nH]c2ccccc2c1C1(c2ccc(N(CC)CC)cc2OCCCCOc2cc(N(CC)CC)ccc2C2(c3c(CCC)[nH]c4ccccc34)OC(=O)c3ccccc32)OC(=O)c2ccccc21 (stereo not drawn)
100 to 104 °C | COC(=O)c1ccc(Cn2c(C(=O)C3CCN(CCC4(c5ccc(OC)c(OC)c5)CCN(C(=O)c5cc(OC)c(OC)c(OC)c5)C4)CC3)nc3ccccc32)cc1 (stereo not drawn)
84 to 88 °C | CC(C)[C@H](NC(=O)N(C)Cc1ccccn1)C(=O)N[C@@H](Cc1ccccc1)[C@H](O)[C@@H](O)[C@H](Cc1ccccc1)NC(=O)[C@@H](NC(=O)N(C)Cc1cscn1)C(C)C
116 to 118 °C | CCCc1[nH]c2ccccc2c1C1(c2ccc(N(CC)CC)cc2OCCCCCCCCCCOc2cc(N(CC)CC)ccc2C2(c3c(CCC)[nH]c4ccccc34)OC(=O)c3ccccc32)OC(=O)c2ccccc21 (stereo not drawn)
266 to 270 °C | O=C(Nc1ccc(Cl)cc1)NC1CCN(S(=O)(=O)c2ccc(C(=O)O)cc2)CC1
179 to 180 °C | COc1cc(OC)c(/C=C/C(c2ccc(OC)c(NC(=O)C(F)(F)F)c2)S(=O)(=O)C(/C=C/c2c(OC)cc(OC)cc2OC)c2ccc(OC)c(NC(=O)C(F)(F)F)c2)c(OC)c1 (stereo not drawn)
130 °C | CCN(CC)CCN=S(=O)(c1ccccc1)c1cccnc1 (stereo not drawn)
37 to 39 °C | CCCCCCCCCCOc1cc(OCCCCCCCCCC)cc(N(CC(=O)OCOC(C)=O)CC(=O)OCOC(C)=O)c1
114 to 115 °C | CCCCC(C)OC(=O)c1c(I)c(I)c(C(=O)OC(C)CCCC)c(I)c1I (stereo not drawn)
218 to 220 °C | CC[C@H](C)[C@H](NC(=O)OCC1c2ccccc2-c2ccccc21)C(=O)N[C@@H](Cc1ccc(OC(C)(C)C)cc1)C(=O)N[C@@H](C)C(=O)NCc1c(OC)ccc2c1Oc1c(ccc(OC)c1CC(=O)OCc1ccccc1)C2(C)C
112 to 115 °C | COc1ccc([C@@H]2Sc3ccccc3N(CCN(C)C)C(=O)[C@@H]2OC(=O)CCC(=O)O[C@H]2C(=O)N(CCN(C)C)c3ccccc3S[C@H]2c2ccc(OC)cc2)cc1 (relative stereo)
52 °C | CCCCCCCCCCCCCCOc1ccc(N(CC(=O)OCc2ccccc2)CC(=O)OCc2ccccc2)cc1OCCCCCCCCCCCCCC

The next lines start with the molecule.

SMILES | melting point
Nc1nc2sc(Cc3ccccc3)cc2c(=O)[nH]1 | 294 to 296 °C
O=C(Cc1cc(I)c(Oc2cc(I)c(OCC3CO3)c(I)c2)c(I)c1)OCC1CO1 (stereo not drawn) | 116 °C
O=c1[nH]c(=Cc2ccc(OCc3ccccc3)cn2)c(=O)[nH]c1=Cc1ccc(OCc2ccccc2)cn1 | 283 to 285 °C
CC(=O)OCC(CN(CC(COC(C)=O)OC(C)=O)C(=O)c1c(I)c(NC(=O)C2CCCO2)c(I)c(C(N)=O)c1I)OC(C)=O (stereo not drawn) | 101 to 104 °C
CC(C)c1oncc1S(=O)(=O)c1ccc(O)cc1 | 129 to 131 °C
CN(C)CCCN=S(=O)(c1ccccc1)c1cccs1 (stereo not drawn) | 125 °C
CC(=O)OCC1OC(OC2C(COC(C)=O)OC(OC3C(COC(C)=O)OC(OCCBr)C(OC(C)=O)C3OC(C)=O)C(OC(C)=O)C2OC(C)=O)C(OC(C)=O)C(OC(C)=O)C1OC(C)=O (stereo not drawn) | 179 to 181 °C
[C-]#[N+]C1(C)CN(C(=O)Nc2ccc(C(F)(F)F)cc2)N=C1c1ccc(Cl)cc1 (stereo not drawn) | 171 to 173 °C
COc1cc(C(=O)NC2OC(COC(C)=O)C(OC3OC(COC(C)=O)C(OC(C)=O)C(OC(C)=O)C3OC(C)=O)C(OC(C)=O)C2OC(C)=O)ccc1Cl (stereo not drawn) | 106 to 110 °C
FC(F)(Br)C(F)(Cl)Br (stereo not drawn) | -72.9 °C
CC12CC3CC(C)(C1)CC(N)(C3)C2 | 153 °C
Cc1c(SCCN2CCOCC2)ccnc1CSc1nc2ccccc2n1CC(=O)N(C)C | 178 to 180 °C
C=C(C)C(=O)Nc1ccc2ncnc(Nc3cccc(Br)c3)c2c1 | 244 to 245 °C
O=C(OI(OC(=O)C(F)(F)F)C(F)(F)C(F)(F)C(F)(F)C(F)(F)C(F)(F)C(F)(F)C(F)(F)C(F)(F)C(F)(F)C(F)(F)F)C(F)(F)F | 83 to 88 °C
[C-]#[N+]C1(C)Cc2ccccc2C(=C)c2ccccc21 (stereo not drawn) | 146 to 148 °C
CC(CCCCCCCCCCCCc1scc(Br)c1Br)C(=O)C(C)CCCCCCCCCCCCc1scc(Br)c1Br (stereo not drawn) | 50 to 52 °C
Brc1ccc2c(c1)C(CCCCCCCCCCn1c3ccccc3c3ccccc31)(CCCCCCCCCCn1c3ccccc3c3ccccc31)c1cc(Br)ccc1-2 | 94 to 96 °C
COc1cc([N+](=O)[O-])cc(C(=O)C2CCCN(C(=O)c3cc([N+](=O)[O-])cc(OC)c3OC)NNN(C(=O)c3cc([N+](=O)[O-])cc(OC)c3OC)CCCC(C(=O)c3cc([N+](=O)[O-])cc(OC)c3OC)CC2)c1OC (stereo not drawn) | 232 to 235 °C
CCCCCCCCCCCS(=O)(=O)c1cc2c3cc(S(=O)(=O)CCCCCCCCCCC)c(S(=O)(=O)CCCCCCCCCCC)cc3c3cc(S(=O)(=O)CCCCCCCCCCC)c(S(=O)(=O)CCCCCCCCCCC)cc3c2cc1S(=O)(=O)CCCCCCCCCCC | 179 to 180 °C

SMILES | melting point
CCCc1nn(C)c(C(=O)O)c1[N+](=O)[O-] | 122 to 126 °C
Cc1cc(F)c(-n2nc(C(F)(F)F)nc2NC(=O)C(F)(F)F)cc1C(SC(c1cc(-n2nc(C(F)(F)F)nc2NC(=O)C(F)(F)F)c(F)cc1C)C(F)(F)F)C(F)(F)F (stereo not drawn) | 122 to 125 °C
CC1(C)CC(Oc2nc(N(C3CC(C)(C)N(O)C(C)(C)C3)C3CC(C)(C)N(O)C(C)(C)C3)nc(N(C3CC(C)(C)N(O)C(C)(C)C3)C3CC(C)(C)N(O)C(C)(C)C3)n2)CC(C)(C)N1O | 233 to 236 °C
CCCCCCCC/C=C\CCCCCCCCN | 15 to 22 °C
Cc1ccc(Br)cc1C | -0.2 °C
CCCc1c(CC[Si](Cl)(Cl)Cl)c(CC[Si](Cl)(Cl)Cl)c(CC[Si](Cl)(Cl)Cl)c(CC[Si](Cl)(Cl)Cl)c1CC[Si](Cl)(Cl)Cl | 211 to 216 °C
O=C(O)c1ccc([Si](CCC(F)(F)C(F)(F)C(F)(F)C(F)(F)C(F)(F)C(F)(F)C(F)(F)C(F)(F)C(F)(F)C(F)(F)F)(CCC(F)(F)C(F)(F)C(F)(F)C(F)(F)C(F)(F)C(F)(F)C(F)(F)C(F)(F)C(F)(F)C(F)(F)F)CCC(F)(F)C(F)(F)C(F)(F)C(F)(F)C(F)(F)C(F)(F)C(F)(F)C(F)(F)C(F)(F)C(F)(F)F)cc1 | 134 to 136 °C
O=[N+]([O-])c1ccc2cn[nH]c(=S)c2c1 | 233 to 234 °C
C[Si](C)(C)CCS(=O)(=O)N=S(=O)(c1ccc(N)cc1)C1CC1 (racemic) | 137 to 138 °C
CC(=O)OCC(CNC(=O)c1c(I)c(C(=O)NCC(COC(C)=O)OC(C)=O)c(I)c(N2CCCC(Br)C2=O)c1I)OC(C)=O (stereo not drawn) | 232 to 235 °C
CCOCCCO | 5.2 °C
CC(C)CCCC(C)C1CCC2C3CC=C4CC(NCCCNC(=O)CCNC(=O)CCNC(=O)CCCCCNc5ccc([N+](=O)[O-])cc5[N+](=O)[O-])CCC4(C)C3CCC12C (stereo not drawn) | 118 to 119 °C
FC(F)(F)C(F)(F)C(F)(F)C(F)(F)C(F)(F)C(F)(F)CCc1ccc(P(c2ccccc2)c2ccc(CCC(F)(F)C(F)(F)C(F)(F)C(F)(F)C(F)(F)C(F)(F)F)cc2)cc1 | 42.1 to 43.1 °C
CS(C)(=O)=NC(=O)c1cc(O)ccc1[N+](=O)[O-] | 146 to 149 °C
CC(Br)C(=O)N=S(C)(=O)c1ccccc1 (stereo not drawn) | 109 to 110 °C
NC(=O)c1cc(-c2ccccc2)c(=O)n2c1-c1sccc1CC2 | 281 to 282 °C
CC(=O)OCC1OC(OC2C(COC(C)=O)OC(OC3C(CO)OC(OCCBr)C(O)C3O)C(OC(C)=O)C2OC(C)=O)C(OC(C)=O)C(OC(C)=O)C1OC(C)=O (stereo not drawn) | 178 to 180 °C
CCC(C=CC(C)C1CCC2C3CC=C4CC(OC(=O)N(CC(COC(c5ccccc5)(c5ccccc5)c5ccccc5)C(=O)NC)C(C)C)CCC4(C)C3CCC12C)C(C)C (stereo not drawn) | 92 to 93 °C

— a melting point compilation (Tetko et al.)
